Measurements taken from patent US20110009403A1, “2-MORPHOLINYLPURINES AS INHIBITORS OF PI3K” (S*BIO Pte Ltd., priority 2007, published 2011).

Assays:
[1] = tested on: human breast cancer cell lines; conditions: six of eight cancer lines inhibited; cited from earlier work
[2] = target: mTOR (Homo sapiens, UniProt P42345); assay: mTOR assay (phosphorylation of 4eBP1, [γ33P]-ATP filter plate); format: biochemical; conditions: 10 μM ATP, 1 hour at room temperature
Protocol: Truncated mTOR kinase and His-tagged 4eBP1 were produced in-house. [γ^33P]-ATP was purchased from Amersham (GE Healthcare). All chemicals, unless otherwise stated, were from Sigma-Aldrich.
Phosphorylation assays were initially performed in a final volume of 20 μL in 384-well polypropylene plate (Greiner). Compounds were typically tested over the range from 100 μM to 0.006 μM, in 8 step dilutions, in duplicate. 10 μL/well of 2× Enzyme-Substrate solution (1.5 μg/mL mTOR, 40 μg/mL 4eBP1 in 1× assay buffer: 10 mM Hepes pH 7.5, 50 mM NaCl and 10 mM MnCl2) were first added to the sample plate containing 1 μL/well of test compound in neat DMSO. The reaction was initiated by adding 10 μL/well of 20 μM ATP solution (final assay concentration 10 μM ATP and 0.4 μCi/well of [γ^33P]-ATP). After 1 hour incubation at room temperature, the reaction was terminated with 40 μL/well of 20 mM EDTA/1 mM ATP solution.
50 μL/well of the stopped reaction mix was then transferred to 384-well MultiScreenHTS-PH filter plate (Millipore) pre-added with 50 μL/well of 1% phosphoric acid. The plate was washed 4 times with 120 μL/well of 0.5% phosphoric acid via vacuum filtration. Finally, 10 μL/well of Optiphase™ SuperMix liquid scintillation cocktail (Perkin Elmer) was added. After minimum 1 hour of incubation, counting was performed in a Wallac MicroBeta TriLux scintillation counter using coincidence counting mode with crosstalk correction.

[3] = tested on: DU145; assay: Cell-based proliferation assay, DU145; conditions: Homo sapiens, DU-145; DU145 cells, 96 h treatment
Protocol: (§1) Human cancer cell lines PC3 and DU145 (human prostate cancer cell lines), were obtained from ATCC. They were cultured in the media according to the ATCC work instructions. PC3 and DU145 cells were seeded at 1,000 cells per well in 96-well plates, respectively. The plates were incubated at 37° C., 5% CO2, for 24 h. Cells were treated with compounds at various concentrations for 96 h. Cell proliferation was then quantified using Celltiter96 Aqueous One Solution Cell Proliferation Assay from Promega (Madison Wis.). Dose response curves were plotted to determine IC50 values for the compounds using XL-fit (ID Business Solution, Emeryville, Calif.).

[4] = target: T1, PI3K p110α/p85 (Homo sapiens, UniProt P42336); assay: PI3K assay ([γ33P]ATP, PtdIns/PtdSer coated plates); format: biochemical; conditions: 2 μM ATP, 1 hour at RT; read-out: IC50 (PI3Kα)
T1 construct: made in house
Protocol: Recombinant PI3K p110α/p85 was prepared in-house. Phosphatidylinositol (PtdIns), phosphotidylserine (PtdSer) and all other unspecified chemicals were purchased from Sigma-Aldrich. [γ^33P]ATP and Optiphase scintillant were obtained from Perkin Elmer.
Assays were performed in a final assay volume of 25 μL in 384-well Maxisorp plates (Nunc). Compounds were tested at 8 concentrations in 3-fold serial dilution, generally starting from 10 μM. Maxisorp plates were coated with 20 μL/well of a 1:1 mixture of PtdIns and PtdSer [0.1 mg/mL each dissolved in chloroform:ethanol (3:7)] and left overnight in a fume hood at room temperature (RT) to dry.
The enzyme reaction was created by pipetting 5 μL/well of compound (in 2.5% DMSO), 10 μL/well of enzyme (0.5 μg/mL p110α+1 μg/mL p85), and 10 μL/well of 5 μM ATP with 5 μCi/mL [γ^33P]ATP in assay buffer (final concentrations: 0.2 μg/mL p110α, 2 μM ATP, […] [γ^33P]ATP in 1× assay buffer: 100 mM Tris-HCl pH 7.0, 200 mM NaCl, 8 mM MgCl2). The reaction was incubated for 1 hour at RT and terminated with 30 μL/well of 50 mM EDTA solution. The plate was then washed twice with TBS, dried, and added with 30 μL/well of scintillant before it was counted in a MicroBeta Trilux.

[5] = tested on: PC3; assay: Cell-based proliferation assay, PC3; conditions: Homo sapiens, PC-3; PC3 cells, 96 h treatment
Protocol: as §1

T1 sequence (P42336 whole entry): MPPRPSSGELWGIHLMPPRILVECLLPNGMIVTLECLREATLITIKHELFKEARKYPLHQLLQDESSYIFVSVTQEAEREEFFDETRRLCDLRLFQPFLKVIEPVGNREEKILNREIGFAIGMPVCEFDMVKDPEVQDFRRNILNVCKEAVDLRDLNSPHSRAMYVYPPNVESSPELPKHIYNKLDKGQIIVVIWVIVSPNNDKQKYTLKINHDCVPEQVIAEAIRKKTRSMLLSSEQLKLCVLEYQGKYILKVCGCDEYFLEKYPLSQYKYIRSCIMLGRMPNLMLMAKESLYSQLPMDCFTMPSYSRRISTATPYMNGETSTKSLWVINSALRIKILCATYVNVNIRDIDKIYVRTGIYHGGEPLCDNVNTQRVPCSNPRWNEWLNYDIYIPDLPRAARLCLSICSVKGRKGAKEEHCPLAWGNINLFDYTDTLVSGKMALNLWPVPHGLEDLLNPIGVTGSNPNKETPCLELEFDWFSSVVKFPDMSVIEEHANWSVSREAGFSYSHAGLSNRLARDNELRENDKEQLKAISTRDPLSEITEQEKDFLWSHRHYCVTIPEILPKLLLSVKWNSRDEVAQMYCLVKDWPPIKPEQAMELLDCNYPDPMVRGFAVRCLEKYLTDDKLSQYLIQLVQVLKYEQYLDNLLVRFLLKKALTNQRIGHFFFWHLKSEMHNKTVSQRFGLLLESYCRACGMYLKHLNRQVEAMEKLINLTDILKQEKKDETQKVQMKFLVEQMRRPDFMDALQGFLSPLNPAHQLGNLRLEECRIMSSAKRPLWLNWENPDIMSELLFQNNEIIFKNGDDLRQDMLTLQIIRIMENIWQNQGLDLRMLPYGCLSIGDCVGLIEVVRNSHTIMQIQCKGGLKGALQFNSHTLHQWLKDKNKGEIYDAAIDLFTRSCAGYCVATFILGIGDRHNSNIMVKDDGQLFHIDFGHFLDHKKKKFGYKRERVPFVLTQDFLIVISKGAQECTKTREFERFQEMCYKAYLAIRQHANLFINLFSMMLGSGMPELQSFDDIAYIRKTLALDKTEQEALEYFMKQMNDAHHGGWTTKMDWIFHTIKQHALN
T1 sequence (P27986 whole entry partner): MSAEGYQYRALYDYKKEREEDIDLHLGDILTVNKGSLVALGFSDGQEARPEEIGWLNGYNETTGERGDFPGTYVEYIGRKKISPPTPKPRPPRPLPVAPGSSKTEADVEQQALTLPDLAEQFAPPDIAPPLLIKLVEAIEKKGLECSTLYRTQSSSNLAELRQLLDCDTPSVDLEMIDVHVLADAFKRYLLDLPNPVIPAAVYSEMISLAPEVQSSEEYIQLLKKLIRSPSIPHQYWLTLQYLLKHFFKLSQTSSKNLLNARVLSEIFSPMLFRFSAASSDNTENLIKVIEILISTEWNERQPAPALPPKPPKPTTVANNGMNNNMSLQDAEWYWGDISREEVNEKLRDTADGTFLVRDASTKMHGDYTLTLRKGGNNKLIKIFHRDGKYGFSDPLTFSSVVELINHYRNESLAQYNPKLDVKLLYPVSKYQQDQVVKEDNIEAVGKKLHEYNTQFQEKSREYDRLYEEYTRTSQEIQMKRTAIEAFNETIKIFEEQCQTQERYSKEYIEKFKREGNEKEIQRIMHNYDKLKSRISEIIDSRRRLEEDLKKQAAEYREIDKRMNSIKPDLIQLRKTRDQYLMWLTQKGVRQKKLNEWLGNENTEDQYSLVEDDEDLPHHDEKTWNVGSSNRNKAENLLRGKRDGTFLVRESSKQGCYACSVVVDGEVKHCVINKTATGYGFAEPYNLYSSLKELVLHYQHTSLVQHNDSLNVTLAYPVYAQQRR
Sequence of mTOR (P42345 1382-2549 limits assumed): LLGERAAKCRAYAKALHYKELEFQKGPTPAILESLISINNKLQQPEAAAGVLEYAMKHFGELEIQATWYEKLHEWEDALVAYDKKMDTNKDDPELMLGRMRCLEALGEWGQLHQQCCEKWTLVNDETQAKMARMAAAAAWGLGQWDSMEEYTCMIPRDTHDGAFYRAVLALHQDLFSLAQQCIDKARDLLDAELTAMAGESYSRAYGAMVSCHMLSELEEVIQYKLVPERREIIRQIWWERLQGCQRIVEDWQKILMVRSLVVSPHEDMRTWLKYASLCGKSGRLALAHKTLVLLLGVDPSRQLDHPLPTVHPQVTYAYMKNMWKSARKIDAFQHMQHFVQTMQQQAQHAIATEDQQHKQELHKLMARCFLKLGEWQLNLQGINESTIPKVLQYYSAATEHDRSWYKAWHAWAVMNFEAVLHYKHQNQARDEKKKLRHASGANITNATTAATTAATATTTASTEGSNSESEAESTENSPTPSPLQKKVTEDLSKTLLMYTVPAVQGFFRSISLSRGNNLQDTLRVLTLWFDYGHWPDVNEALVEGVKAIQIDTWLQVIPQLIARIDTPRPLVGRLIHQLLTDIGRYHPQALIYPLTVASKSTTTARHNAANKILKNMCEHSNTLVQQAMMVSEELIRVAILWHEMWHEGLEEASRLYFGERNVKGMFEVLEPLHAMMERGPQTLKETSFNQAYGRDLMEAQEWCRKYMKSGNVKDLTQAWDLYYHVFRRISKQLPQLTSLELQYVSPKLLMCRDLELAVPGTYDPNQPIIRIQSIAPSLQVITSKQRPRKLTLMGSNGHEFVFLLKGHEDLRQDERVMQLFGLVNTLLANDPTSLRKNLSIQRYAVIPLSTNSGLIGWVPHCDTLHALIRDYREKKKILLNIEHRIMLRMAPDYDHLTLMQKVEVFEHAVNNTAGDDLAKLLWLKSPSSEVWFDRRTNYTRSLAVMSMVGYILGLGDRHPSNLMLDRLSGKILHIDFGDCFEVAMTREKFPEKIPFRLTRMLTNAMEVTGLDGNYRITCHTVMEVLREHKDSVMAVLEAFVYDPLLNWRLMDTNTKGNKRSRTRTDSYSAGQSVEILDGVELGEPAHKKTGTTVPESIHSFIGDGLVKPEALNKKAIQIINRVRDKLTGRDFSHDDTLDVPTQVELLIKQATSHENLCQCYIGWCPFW

Compound | IC50 [2] | IC50 [3] | IC50 [4] | IC50 [5] | IC50 [1]
CO[C@H]1C[C@@H]2CC[C@@H](C)[C@@](O)(O2)C(=O)C(=O)N2CCCC[C@H]2C(=O)O[C@H]([C@H](C)C[C@@H]2CC[C@@H](OC(=O)C(C)(CO)CO)[C@H](OC)C2)CC(=O)[C@H](C)/C=C(\C)[C@@H](O)[C@@H](OC)C(=O)[C@H](C)C[C@H](C)/C=C/C=C/C=C/1C [CCI-779] |  |  |  |  | low nanomolar range
CCC(C)n1c(N2CCCC2)nc2c(-c3cccc(O)c3)nc(N3CCOCC3)nc21 (stereo not shown) [Compound 125] | < 1000 nM |  | < 1000 nM |  | 
CCC(C)n1c(-c2ccccc2)nc2c(-c3cccc(O)c3)nc(N3CCOCC3)nc21 (stereo not shown) [Compound 126] | < 1000 nM |  | < 1000 nM |  | 
CCC(C)n1c(NCCN(C)C)nc2c(-c3cccc(O)c3)nc(N3CCOCC3)nc21 (stereo not shown) [Compound 127] | < 1000 nM |  | < 1000 nM |  | 
CCC(C)n1c(NCCOC)nc2c(-c3cccc(O)c3)nc(N3CCOCC3)nc21 (stereo not shown) [Compound 128] | < 1000 nM |  | < 1000 nM |  | 
CCC(C)n1c(Cl)nc2c(-c3cccc(O)c3)nc(N3CCOCC3)nc21 (stereo not shown) [Compound 129] | < 1000 nM |  | < 1000 nM |  | 
CCC(C)n1c(S(C)(=O)=O)nc2c(-c3cccc(O)c3)nc(N3CCOCC3)nc21 (stereo not shown) [Compound 130, 3-(9-sec-Butyl-8-methanesulfonyl-2-morpholin-4-yl-9H-purin-6-yl)-phenol] | < 1000 nM |  | < 1000 nM |  | 
Nc1ccc(-c2nc(N3CCOCC3)nc3c2ncn3Cc2cccc([N+](=O)[O-])c2)cn1 [Compound 131] | < 1000 nM |  | < 1000 nM |  | 
CCC(C)n1cnc2c(-c3ccc(N)nc3)nc(N3CCOCC3)nc21 (stereo not shown) [Compound 132, 5-(9-sec-Butyl-2-morpholin-4-yl-9H-purin-6-yl)-pyridin-2-ylamine] | < 1000 nM |  | < 1000 nM |  | 
Nc1ccc(-c2nc(N3CCOCC3)nc3c2ncn3C2CCCC2)cn1 [Compound 133] | < 1000 nM |  | < 1000 nM |  | 
COCC(C)n1cnc2c(-c3ccc(N)nc3)nc(N3CCOCC3)nc21 (stereo not shown) [Compound 134, 5-[9-(2-Methoxy-1-methyl-ethyl)-2-morpholin-4-yl-9H-purin-6-yl]-pyrirlin-2-ylamino] | < 1000 nM |  | < 1000 nM |  | 
CC(C)n1cnc2c(-c3ccc(N)nc3)nc(N3CCOCC3)nc21 [Compound 135] | < 1000 nM |  | < 1000 nM |  | 
CC(C)C(C)n1cnc2c(-c3ccc(N)nc3)nc(N3CCOCC3)nc21 (stereo not shown) [Compound 136] | < 1000 nM |  | < 1000 nM |  | 
CCC(C#N)n1cnc2c(-c3ccc(N)nc3)nc(N3CCOCC3)nc21 (stereo not shown) [Compound 137] | < 1000 nM |  | 1000 to 5000 nM |  | 
CCC(CC)n1cnc2c(-c3ccc(N)nc3)nc(N3CCOCC3)nc21 [Compound 138] | < 1000 nM |  | < 1000 nM |  | 
N#CCn1cnc2c(-c3ccc(O)nc3)nc(N3CCOCC3)nc21 [Compound 139] | > 5000 nM |  | > 5000 nM |  | 
COCCn1cnc2c(-c3cncc(F)c3)nc(N3CCOCC3)nc21 [Compound 140] | > 5000 nM |  | 1000 to 5000 nM |  | 

The next lines start with results.

IC50 [2] | IC50 [3] | IC50 [4] | IC50 [5] | Compound | IC50 [1]
< 1000 nM | 1000 to 5000 nM | < 1000 nM |  | Oc1cccc(-c2nc(N3CCOCC3)nc3c2ncn3Cc2ccccc2)c1 [Compound 2] | 
< 1000 nM | 1000 to 5000 nM | < 1000 nM |  | COc1ccc(Cn2cnc3c(-c4cccc(O)c4)nc(N4CCOCC4)nc32)cc1 [Compound 8] | 
< 1000 nM | ≤ 1000 nM | < 1000 nM |  | C=CCCn1cnc2c(-c3cccc(O)c3)nc(N3CCOCC3)nc21 [Compound 22] | 
< 1000 nM |  | < 1000 nM | ≤ 1000 nM | Cc1cccc(-n2cnc3c(-c4cccc(O)c4)nc(N4CCOCC4)nc32)c1 [Compound 27, 3-(2-Morpholin-4-yl-9-(3-methylphenyl)-9H-purin-6-yl)-phenol] | 
< 1000 nM | 1000 to 5000 nM | < 1000 nM |  | N#CCn1cnc2c(-c3cccc(O)c3)nc(N3CCOCC3)nc21 [Compound 35] | 
< 1000 nM | 1000 to 5000 nM | < 1000 nM |  | CC(c1ccccc1)n1cnc2c(-c3cccc(O)c3)nc(N3CCOCC3)nc21 (stereo not shown) [Compound 36] | 
< 1000 nM | ≤ 1000 nM | < 1000 nM |  | Oc1cccc(-c2nc(N3CCOCC3)nc3c2ncn3CC2CC2)c1 [Compound 50] | 
< 1000 nM | 1000 to 5000 nM | < 1000 nM |  | c1cc(-c2nc(N3CCOCC3)nc3c2ncn3CC2CC2)c2cc[nH]c2c1 [Compound 51] | 
< 1000 nM | ≤ 1000 nM | < 1000 nM | ≤ 1000 nM | Oc1cccc(-c2nc(N3CCOCC3)nc3c2ncn3C2CCCC2)c1 [Compound 54] | 
< 1000 nM | 1000 to 5000 nM | < 1000 nM |  | c1cc(-c2nc(N3CCOCC3)nc3c2ncn3C2CCCC2)c2cc[nH]c2c1 [Compound 63] | 
< 1000 nM |  | < 1000 nM | ≤ 1000 nM | CC(C)C(C)n1cnc2c(-c3cccc4[nH]ccc34)nc(N3CCOCC3)nc21 (stereo not shown) [Compound 101] | 
< 1000 nM |  | < 1000 nM |  | CCNc1nc2c(-c3cccc(O)c3)nc(N3CCOCC3)nc2n1C(C)CC (stereo not shown) [Compound 122] | 
< 1000 nM |  | < 1000 nM |  | CCC(C)n1c(NC(C)C)nc2c(-c3cccc(O)c3)nc(N3CCOCC3)nc21 (stereo not shown) [Compound 123, 3-(9-sec-Butyl-8-isopropylamino-2-morpholin-4-yl-9H-purin-6-yl)-phenol] | 
< 1000 nM |  | < 1000 nM |  | CCC(C)n1c(SC)nc2c(-c3cccc(O)c3)nc(N3CCOCC3)nc21 (stereo not shown) [Compound 124, 3-(9-sec-Butyl-8-methylsulfanyl-2-morpholin-4-yl-9H-purin-6-yl)-phenol] | 
